Reference: patent US9675070B2 (BAYER CROPSCIENCE AG, priority 2013, dated 2017)

Assays:
[1] = log P determination by HPLC on reversed-phase column (C18), EEC Directive 79/831 Annex V.A8; type: physicochemical; details: method a): Agilent 1100 LC, Zorbax Eclipse Plus C18, acetonitrile/water with formic acid, gradient 10-95% in 4.25 min, 55° C.
Protocol: Agilent 1100 LC system; 50*4.6 Zorbax Eclipse Plus C18 1.8 micron; mobile phase A: acetonitrile (0.1% formic acid); mobile phase B: water (0.09% formic acid); linear gradient from 10% acetonitrile to 95% acetonitrile in 4.25 min, then 95% acetonitrile for a further 1.25 min; oven temperature 55° C.; flow rate: 2.0 ml/min. Mass detection is carried out via an Agilend MSD system.
^a)Unless indicated otherwise, the following method was used to determine the log P values and masses: The determination of the given log P values was carried out in accordance with EEC Directive 79/831 Annex V.A8 by HPLC (High Performance Liquid Chromatography) on a reversed-phase column (C18). Agilent 1100 LC system; 50*4.6 Zorbax Eclipse Plus C18 1.8 micron; mobile phase A: acetonitrile (0.1% formic acid); mobile phase B: water (0.09% formic acid); linear gradient from 10% acetonitrile to 95% acetonitrile in 4.25 min, then 95% acetonitrile for a further 1.25 min; oven temperature 55° C.; flow rate: 2.0 ml/min. Mass detection is carried out via an Agilend MSD system. ^b)Note for the alternative method for determining log P values and masses: The stated log P values were determined in accordance with EEC Directive 79/831 Annex V.A8 by HPLC (High Performance Liquid Chromatography) using a reversed-phase column (C18). Waters ACQUITY UPLC-MS system; 2.1*50 mm Zorbax Eclipse Plus C18 1.8 μm 600 bar; injection volume: 0.5 ul about 1000 ppm; mobile phase A: acetonitrile (0.1% formic acid); mobile phase B: water (0.085% formic acid); linear gradient from 10% acetonitrile to 95% acetonitrile in 1.5 min, then 95% acetonitrile for a further 0.5 min; oven temperature 60° C.; flow rate: 1.0 ml/min. Mass detection is carried out via a Waters SQD system.

[2] = system: larvae of the mustard beetle (Phaedon cochleariae); assay: Phaedon cochleariae spray test (PHAECO); type: in vivo; details: application rate 100 g/ha; Chinese cabbage leaf discs; after 7 days
Protocol: Phaedon cochleariae—Spray Test (PHAECO)
(§1) Solvents: 78.0 parts by weight of acetone
(§2) • 1.5 parts by weight of dimethylformamide Emulsifier: alkylaryl polyglycol ether
(§3) To produce a suitable preparation of active compound, 1 part by weight of active compound is dissolved using the stated parts by weight of solvent and made up with water comprising an emulsifier concentration of 1000 ppm until the desired concentration is reached. To produce further test concentrations, the preparation is diluted with emulsifier-containing water.
After 7 days, the efficacy in % is determined. 100% means that all of the beetle larvae have been killed; 0% means that none of the beetle larvae have been killed.

[3] = system: L1 larvae of the Australian sheep blowfly (Lucilia cuprina); assay: Lucilia cuprina test (LUCICU); type: in vivo; details: application rate 100 ppm; minced horsemeat; after 2 days
Protocol: Lucilia cuprina Test (LUCICU) Solvent: dimethyl sulphoxide To produce a suitable preparation of active compound, 10 mg of active compound are mixed with 0.5 ml of dimethyl sulphoxide, and the concentrate is diluted with water to the desired concentration. About 20 L1 larvae of the Australian sheep blowfly (Lucilia cuprina) are transferred into a test vessel containing minced horsemeat and the active compound preparation of the desired concentration. After 2 days, the kill in % is determined. 100% means that all of the larvae have been killed; 0% means that none of the larvae have been killed.

[4] = system: engorged adult female cattle ticks (Boophilus microplus); assay: Boophilus microplus injection test (BOOPMI Inj); type: in vivo; details: application rate 20 μg/animal; injection into abdomen; assessed after 7 days
Protocol: Boophilus microplus Injection Test (BOOPMI Inj)
(§4) Solvent: dimethyl sulphoxide
To produce a suitable preparation of active compound, 10 mg of active compound are mixed with 0.5 ml of solvent, and the concentrate is diluted with solvent to the desired concentration.
1 μl of the active compound solution is injected into the abdomen of 5 engorged adult female cattle ticks (Boophilus microplus). The animals are transferred into dishes and kept in a climate-controlled room.
(§5) The activity is assessed after 7 days by laying of fertile eggs. Eggs whose fertility is not visible from the outside are stored in a climate-controlled cabinet until the larvae hatch after about 42 days. An efficacy of 100% means that none of the ticks has laid any fertile eggs; 0% means that all eggs are fertile.

[5] = system: adult cat fleas (Ctenocephalides felis); assay: Ctenocephalides felis oral test (CTECFE); type: in vivo; details: application rate 100 ppm in citrated cattle blood; after 2 days
Protocol: Ctenocephalides felis-Oral Test ([…]) Solvent: dimethyl sulphoxide To produce a suitable preparation of active compound, 10 mg of active compound are mixed with 0.5 ml of dimethyl sulphoxide. Dilution with citrated cattle blood gives the desired concentration. About 20 unfed adult cat fleas (Ctenocephalides felis) are placed into a chamber which is closed at the top and bottom with gauze. A metal cylinder whose bottom end is closed with a parafilm is placed onto the chamber. The cylinder contains the blood/active ingredient preparation, which can be imbibed by the fleas through the parafilm membrane. After 2 days, the kill in % is determined. 100% means that all of the fleas have been killed; 0% means that none of the fleas have been killed.

[6] = system: adult houseflies (Musca domestica); assay: Musca domestica test (MUSCDO); type: in vivo; details: application rate 100 ppm; after 2 days
Protocol: Musca domestica Test (MUSCDO) Solvents: dimethyl sulphoxide To produce a suitable preparation of active compound, 10 mg of active compound are mixed with 0.5 ml of dimethyl sulphoxide, and the concentrate is diluted with water to the desired concentration. Vessels containing a sponge treated with sugar solution and the active compound preparation of the desired concentration are populated with 10 adult houseflies (Musca domestica). After 2 days, the kill in % is determined. 100% means that all of the flies have been killed; 0% means that none of the flies have been killed.

[7] = system: cattle ticks (Boophilus microplus) Parkhurst strain, SP-resistant; assay: Boophilus microplus dip test (BOOPMI Dip); type: in vivo; details: application rate 100 ppm, assessed after 7 days
Protocol: Boophilus microplus—Dip Test (BOOPMI Dip)
Test animals: cattle ticks (Boophilus microplus) Parkhurst strain, SP-resistant
as §4
10 mg of active compound are dissolved in 0.5 ml of dimethyl sulphoxide. To prepare a suitable formulation, the active compound solution is diluted with water to the concentration desired in each case.
This active compound preparation is pipetted into tubes. 8-10 adult engorged female cattle ticks (Boophilus microplus) are transferred into a further tube with holes. The tube is immersed into the active compound formulation, and all ticks are completely wetted. After the liquid has run out, the ticks are transferred on filter discs into plastic dishes and stored in a climate-controlled room.
as §5

[8] = system: Tick nymphs (Amblyomma hebraeum); assay: Amblyomma hebaraeum test (AMBYHE), tick nymph immersion; type: in vivo; details: application rate 100 ppm; immersion one minute; after 42 days
Protocol: Amblyomma hebaraeum Test (AMBYHE) Solvent: dimethyl sulphoxide To produce a suitable preparation of active compound, 10 mg of active compound are mixed with 0.5 ml of dimethyl sulphoxide, and the concentrate is diluted with water to the desired concentration. Tick nymphs (Amblyomma hebraeum) are placed into perforated plastic beakers and immersed in the desired concentration for one minute. The ticks are transferred on filter paper into a Petri dish and stored in a climate-controlled cabinet. After 42 days, the kill in % is determined. 100% means that all of the ticks have been killed; 0% means that none of the ticks have been killed.

[9] = system: caterpillars of the armyworm (Spodoptera frugiperda); assay: Spodoptera frugiperda spray test (SPODFR); type: in vivo; details: application rate 100 g/ha; maize leaf discs; after 7 days
Protocol: Spodoptera frugiperda—Spray Test (SPODFR)
as §1, §2, §3
Leaf discs of maize (Zea mays) are sprayed with an active compound preparation of the desired concentration and, after drying, populated with caterpillars of the armyworm (Spodoptera frugiperda).
After 7 days, the efficacy in % is determined. 100% means that all of the caterpillars have been killed; 0% means that none of the caterpillars have been killed.

[10] = system: greenhouse red spider mite (Tetranychus urticae), OP-resistant; assay: Tetranychus urticae spray test, OP-resistant (TETRUR); type: in vivo; details: application rate 100 g/ha; bean leaf discs; after 6 days
Protocol: Tetranychus urticae—Spray Test, OP-Resistant (TETRUR)
as §1, §2, §3
Discs of bean leaves (Phaseolus vulgaris) which are infested by all stages of the greenhouse red spider mite (Tetranychus urticae) are sprayed with an active compound preparation of the desired concentration.
After 6 days, the efficacy in % is determined. 100% means that all of the spider mites have been killed; 0% means that none of the spider mites have been killed.

| chromatographic logP [1] | SMILES | efficacy in % [2] | kill in % [3] | efficacy (no laying of fertile eggs) [4] | kill in % [5] | kill in % [6] | efficacy (no laying of fertile eggs) [7] | kill in % [8] | efficacy in % [9] | efficacy in % [10] |
| --- | --- | --- | --- | --- | --- | --- | --- | --- | --- | --- |
| 4.37 | Cn1nc(C(F)(F)C(F)(F)F)c(C(F)(F)F)c1-n1cc(-c2ccc(F)c(C#N)c2)cn1 [2-fluoro-5-[2′-methyl-5′-(pentafluoroethyl)-4′-(trifluoromethyl)-2′H-1,3′-bipyrazol-4-yl]benzonitrile] | – | – | – | – | – | – | – | – | – |
| 4.17 | Cn1nc(C(F)(F)C(F)(F)F)c(C(F)(F)F)c1-n1cc(Br)cn1 [4-bromo-2′-methyl-5′-(pentafluoroethyl)-4′-(trifluoromethyl)-2′H-1,3′-bipyrazole] | – | – | – | – | – | – | – | – | – |
| 3.47 | Cn1nc(C(F)(F)C(F)(F)F)c(C(F)(F)F)c1-n1cnc(I)c1 [5-(4-iodo-1H-imidazol-1-yl)-1-methyl-3-(pentafluoroethyl)-4-(trifluoromethyl)-1H-pyrazole] | – | – | – | – | – | – | – | – | – |
| 3.14 | CCC(=O)NCc1cccc(-c2cn(-c3c(C(F)(F)F)c(C(F)(F)C(F)(F)F)nn3C)cn2)c1 [Ib-5, N-(3-{1-[1-methyl-3-(pentafluoroethyl)-4-(trifluoromethyl)-1H-pyrazol-5-yl]-1H-imidazol-4-yl}benzyl)propanamide] | – | – | – | – | – | – | – | – | – |
| – | CCC(=O)NCc1cc(-c2cnn(-c3c(C(F)(F)F)c(C(F)(F)C(F)(F)F)nn3C)c2)ccc1F [Ic-2] | 100% | 100% | 100% | 100% | 100% | 100% | 100% | 100% | 100% |
| – | CC(=O)NCc1cc(-c2cnn(-c3c(C(F)(F)F)c(C(F)(F)C(F)(F)F)nn3C)c2)ccc1F [Ic-4] | 100% | 100% | 100% | 100% | 100% | 100% | 100% | 83% | 100% |
| – | Cn1nc(C(F)(F)C(F)(F)F)c(C(F)(F)F)c1-n1cc(-c2ccc(F)c(CNC(=O)C3CC3)c2)cn1 [Ic-12] | 100% | 100% | 100% | 100% | 100% | – | 100% | 100% | 90% |
| – | CC(=O)NCc1cccc(-c2cnn(-c3c(C(F)(F)F)c(C(F)(F)C(F)(F)F)nn3C)c2)c1 [Ic-16] | 100% | 100% | 100% | 100% | 100% | 100% | 100% | – | 90% |
| – | Cn1nc(C(F)(F)C(F)(F)F)c(C(F)(F)F)c1-n1cc(-c2cccc(CNC(=O)C3CC3)c2)cn1 [Ic-17] | 100% | 100% | 100% | 100% | 100% | 100% | 90% | – | 100% |
| – | CC(=O)NCc1cc(-c2cn(-c3c(C(F)(F)F)c(C(F)(F)C(F)(F)F)nn3C)nn2)ccc1F [Ig-1] | 100% | 100% | 100% | 100% | 100% | 80% | – | – | 100% |
| – | CCC(=O)NCc1cc(-c2cn(-c3c(C(F)(F)F)c(C(F)(F)C(F)(F)F)nn3C)nn2)ccc1F [Ig-5] | 100% | 100% | 100% | 100% | 100% | 100% | – | 100% | – |

| SMILES | chromatographic logP [1] | efficacy in % [2] | kill in % [3] | efficacy (no laying of fertile eggs) [4] | kill in % [5] | kill in % [6] | efficacy (no laying of fertile eggs) [7] | kill in % [8] | efficacy in % [9] | efficacy in % [10] |
| --- | --- | --- | --- | --- | --- | --- | --- | --- | --- | --- |
| Cn1nc(C(F)(F)C(F)(F)F)c(C(F)(F)F)c1-n1cnc(-c2cccc(CNC(=O)OC(C)(C)C)c2)c1 [Ib-1, tert-butyl (3-{1-[1-methyl-3-(pentafluoroethyl)-4-(trifluoromethyl)-1H-pyrazol-5-yl]-1H-imidazol-4-yl}benzyl)carbamate] | 4.21 | – | – | – | – | – | – | – | – | – |
| CCC(=O)NCc1cc(-c2cnn(-c3c(C(F)(F)F)c(C(F)(F)C(F)(F)F)nn3C)c2)ccc1F [Ib-8, N-{2-fluoro-5-[2′-methyl-5′-(pentafluoroethyl)-4′-(trifluoromethyl)-2′H-1,3′-bipyrazol-4-yl]benzyl}propanamide] | 3.27 | 100% | 100% | 100% | 95% | – | – | – | – | – |
